# From patent publication US10913711B2, “Potent and selective inhibitors of monoamine transporters; method of making; and use thereof” (priority 2013, dated 2021)
# Read-outs that look alike come from different tables or passages of the source.
# B1: human DAT wild type (Homo sapiens) (protein)
# chain: MSKSKCSVGLMSSVVAPAKEPNAVGPKEVELILVKEQNGVQLTSSTLTNPRQSPVEAQDRETWGKKIDFLLSVIGFAVDLANVWRFPYLCYKNGGGAFLVPYLLFMVIAGMPLFYMELALGQFNREGAAGVWKICPILKGVGFTVILISLYVGFFYNVIIAWALHYLFSSFTTELPWIHCNNSWNSPNCSDAHPGDSSGDSSGLNDTFGTTPAAEYFERGVLHLHQSHGIDDLGPPRWQLTACLVLVIVLLYFSLWKGVKTSGKVVWITATMPYVVLTALLLRGVTLPGAIDGIRAYLSVDFYRLCEASVWIDAATQVCFSLGVGFGVLIAFSSYNKFTNNCYRDAIVTTSINSLTSFSSGFVVFSFLGYMAQKHSVPIGDVAKDGPGLIFIIYPEAIATLPLSSAWAVVFFIMLLTLGIDSAMGGMESVITGLIDEFQLLHRHRELFTLFIVLATFLLSLFCVTNGGIYVFTLLDHFAAGTSILFGVLIEAIGVAWFYGVGQFSDDIQQMTGQRPSLYWRLCWKLVSPCFLLFVVVVSIVTFRPPHYGAYIFPDWANALGWVIATSSMAMVPIYAAYKFCSLPGSFREKLAYAIAPEKDRELVDRGEVRQFTLRHWLKV
# Key:
# [1] = Phase II glucuronidation stability in mouse liver microsomes (UDPGA); assay type: in vitro ADME
# Description: Phase I and phase II metabolic stability assay for was conducted in mouse liver microsomes. For phase I metabolism, the reaction was carried out with 100 mM potassium phosphate buffer, pH 7.4, in the presence of NADPH regenerating system (1.3 mM NADPH, 3.3 mM glucose 6-phosphate, 3.3 mM MgCl2, 0.4 U/mL glucose-6-phosphate dehydrogenase, 50 μM sodium citrate). Reactions in duplicate were initiated by addition of the liver microsomes to the incubation mixture (compound final concentration was 10 μM; 0.5 mg/mL microsomes). For phase II glucuronidation reaction compound was added to TRIS-HCl buffer (50 mM, pH 7.5) with microsomes (0.5 mg/mL), along with MgCl2 (8 mM), and alamethicin (25 μg/mL) and pre-incubated at 37° C. The reaction was initiated (in duplicate) with UDPGA at a final concentration of 2 mM. Negative controls in the absence NADPH and UDPGA were carried for both phase I and phase II metabolism respectively, to determine the specific cofactor free degradation. […] Compound disappearance was monitored over time using a liquid chromatography and tandem mass spectrometry (LC/MS/MS) method.
# Compounds were separated on an Agilent 1290 UPLC system with a c18 column using a gradient run of 55:45-5:95 water:acetonitrile over 3.2 minutes and detected on an Agilent 6520 QTOF mass spectrometer.
# human DAT A480T mutant = human DAT A480T mutant (Homo sapiens (Human), UniProt Q01959, A480T); assay: [3H]DA uptake inhibition in intact COS7 cells, hDAT A480T; conditions: for Ki: read-out: hDAT A480T Ki [S.E. interval], [3H]DA uptake inhibition potency; for affinity at DAT A480T compared to DAT WT: uptake inhibition
# human DAT A480T mutant, sequence (Q01959 whole entry A480T): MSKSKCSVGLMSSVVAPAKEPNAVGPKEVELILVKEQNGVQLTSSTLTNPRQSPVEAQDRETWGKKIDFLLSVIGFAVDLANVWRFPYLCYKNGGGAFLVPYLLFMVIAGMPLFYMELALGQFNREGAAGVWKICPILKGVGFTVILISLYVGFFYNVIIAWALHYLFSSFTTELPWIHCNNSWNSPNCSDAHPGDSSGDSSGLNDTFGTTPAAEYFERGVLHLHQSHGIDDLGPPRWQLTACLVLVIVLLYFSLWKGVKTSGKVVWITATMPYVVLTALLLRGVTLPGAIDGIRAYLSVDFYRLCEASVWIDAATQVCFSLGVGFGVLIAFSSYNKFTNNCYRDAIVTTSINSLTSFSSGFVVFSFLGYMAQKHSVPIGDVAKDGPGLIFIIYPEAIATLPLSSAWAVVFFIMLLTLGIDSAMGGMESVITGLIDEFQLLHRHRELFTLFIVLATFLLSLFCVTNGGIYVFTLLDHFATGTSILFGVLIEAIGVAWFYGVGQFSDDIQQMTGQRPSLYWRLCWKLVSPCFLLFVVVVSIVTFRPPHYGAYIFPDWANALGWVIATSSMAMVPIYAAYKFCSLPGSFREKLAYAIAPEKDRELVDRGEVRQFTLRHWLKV
# human SERT T497A mutant = human SERT T497A mutant (Homo sapiens (Human), UniProt P31645, T497A); assay type: cell-based; conditions: for Ki: read-out: hSERT T497A Ki [S.E. interval]
# Description: (§1) Molecular Pharmacology Site-directed mutagenesis: Synthetic cDNA encoding the human DAT (synDAT) were subcloned into pcDNA3 (Invitrogen, Carlsbad, Calif.). cDNA encoding the human SERT (hSERT) was cloned into the pUbilz expression vector. Mutations herein were generated by the QuickChange method (adapted from Stratagene, La Jolla, Calif.) and confirmed by restriction enzyme mapping and DNA sequencing. Positive clones were amplified by transformation into XL1 blue competent cells (Stratagene) and positive colony picked and grown in LB media over night at 37° C. in an orbital incubator (Infors) @ 200 rpm. Plasmids were harvested using the maxi prep kit provided by Qiagen according to the manufacturer's manual.
# (§2) Uptake assays were performed essentially as previously described to Cha, J. H.; Zou, M. F.; Adkins, E. M.; Rasmussen, S. G.; Loland, C. J.; Schoenenberger, B.; Gether, U.; Newman, A. H. Rhodamine-Labeled 2beta-Carbomethoxy-3beta-(3,4-Dichlorophenyl)Tropane Analogues as High-Affinity Fluorescent Probes for the Dopamine Transporter. […] Transiently transfected COS-7 cells were plated in 12-well (3*10^5 cells/well) or 24-well dishes (10^5 cells/well) coated with poly-ornithine to achieve an uptake level of no more than 10% of total added radioligand. The uptake assays were carried out 2 days after transfection. Prior to the experiment, the cells were washed once in 500 μl of uptake buffer buffer (25 mM 4-(2-hydroxyethyl)-1-piperazineethanesulfonic acid (HEPES), 130 mM NaCl, 5.4 mM KCl, 1.2 mM CaCl2, 1.2 mM MgSO4, 1 mM L-ascorbic acid, 5 mM D-glucose, and 1 μM of the catechol-O-methyltransferase inhibitor Ro 41-0960 (Sigma), pH 7.4) at room temperature (RT). […] All samples were transferred to 24-well counting plates and 500 μL (or 600 μL) of Opti-phase Hi Safe 3 scintillation fluid (Perkin Elmer) was added followed by counting of the plates in a Wallac Tri-Lux β-scintillation counter (Perkin Elmer). Nonspecific uptake was determined in the presence of 5 μM paroxetine for hSERT and 50 μM nomifensine for hDAT expressing cells. All determinations were performed in triplicate.
# human SERT wild type = human SERT wild type (Homo sapiens (Human), UniProt P31645); assay type: cell-based; conditions: read-out: hSERT WT Ki [S.E. interval]
# Description: as §1, §2
# human DAT wild type = human DAT wild type (Homo sapiens (Human), UniProt Q01959); assay: [3H]DA uptake inhibition in intact COS7 cells, hDAT WT; assay type: cell-based; conditions: [3H]DA uptake inhibition potency, read-out: hDAT WT Ki [S.E. interval]
# [2] = Brain concentrations in mice; conditions: mouse brain; for IV brain Conc. ng/g ± SD: 10 mg/kg IV; for PO brain Conc. ng/g ± SD: 10 mg/kg PO
# Description: Plasma was harvested from blood by centrifugation. Additionally at two selected time points (i.e. 30 min and 2 h) brains were collected following both oral and IV dosing. Samples were extracted from plasma by a single one-step protein precipitation method (as described in bioanalysis section below). For brain tissue, whole brains were weighed and homogenized in two times the volume of acetonitrile, followed by vortexing and centrifugation. Once extracted, the samples were analyzed via LC/MS/MS (as described in bioanalysis section below). Non-compartmental-analysis module in WinNonlin™ (version 5.3) was used to assess pharmacokinetic parameters including maximal concentration (Cmax), time to Cmax (Tmax), area under the curve (AUClast), area extrapolated to infinity (AUCO-∞), terminal disposition rate constant (ke), and terminal half-life (t½).
# Briefly, plasma samples were thawed on ice prior to extraction. Samples (50 μL) were extracted in 300 μL acetonitrile containing 1000 nM losartan as internal standard. For brain, 50 μL of the supernatant from homogenized tissue was extracted with 100 μL acetonitrile containing 1000 nM losartan as internal standard. Extracts were centrifuged at 16000×g at 4° C. for 10 minutes. Supernatants were transferred to a new siliconized tube and dried under N2 at 45° C. for 30 min. Samples were reconstituted with 100 μL of 30% acetonitrile, vortexed and centrifuged. Supernatants (95 μL) were transferred to a 250 μL polypropylene autosampler vials sealed with a Teflon cap and a volume of 10 μL was injected onto the ultra-performance liquid chromatography (UPLC) instrument for quantitative analysis using a temperature-controlled autosampler operating at 10° C.
# The instrument was controlled by the Xcalibur software 2.3 (Thermo Scientific). Samples were introduced to the interface through Turbo Ion Spray with the temperature setting at 350° C.
# Chromatographic analysis was performed using an Accela™ ultra high-performance system consisting of an analytical pump, and an autosampler coupled with TSQ Vantage mass spectrometer (Thermo Fisher Scientific Inc., Waltham Mass.).
# NET = NET (Rattus norvegicus (Rat), UniProt Q9WTR4); assay: Norepinephrine Transporter Binding Assay ([3H]Nisoxetine, rat frontal cortex membranes)
# NET, sequence (Q9WTR4 entry or part of it): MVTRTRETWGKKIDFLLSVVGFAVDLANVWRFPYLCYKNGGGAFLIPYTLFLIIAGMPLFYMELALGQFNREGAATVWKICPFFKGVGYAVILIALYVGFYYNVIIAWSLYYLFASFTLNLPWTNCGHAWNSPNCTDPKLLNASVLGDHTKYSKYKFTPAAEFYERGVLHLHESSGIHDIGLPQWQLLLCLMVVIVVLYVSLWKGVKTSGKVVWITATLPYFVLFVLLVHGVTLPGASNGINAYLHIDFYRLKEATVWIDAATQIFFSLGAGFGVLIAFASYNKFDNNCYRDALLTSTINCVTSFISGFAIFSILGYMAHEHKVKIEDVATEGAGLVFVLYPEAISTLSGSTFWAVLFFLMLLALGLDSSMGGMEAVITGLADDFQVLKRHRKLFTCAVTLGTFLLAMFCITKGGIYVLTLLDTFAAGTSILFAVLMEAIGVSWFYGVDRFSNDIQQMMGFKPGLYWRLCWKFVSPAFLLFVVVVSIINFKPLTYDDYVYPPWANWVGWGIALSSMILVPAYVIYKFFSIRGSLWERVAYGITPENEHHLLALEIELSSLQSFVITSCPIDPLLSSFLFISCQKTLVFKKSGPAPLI
# Description: Binding affinities of all compounds were evaluated at the DAT, SERT, and NET in rat brain membranes using previously described methods:
# Norepinephrine Transporter Binding Assay. Brains from male Sprague-Dawley rats weighing 200-225 g (Taconic Labs, Germantown, N.Y.) were removed, frontal cortex dissected and rapidly frozen. Membranes were prepared by homogenizing tissues in 20 volumes (w/v) of 50 mM Tris containing 120 mM NaCl and 5 mM KCl, (pH 7.4 at 25° C.), using a Brinkman Polytron and centrifuged at 50,000×g for 10 min at 4° C. The resulting pellet was resuspended in buffer, recentrifuged and resuspended in buffer to a concentration of 80 mg/mL. Ligand binding experiments were conducted in assay tubes containing 0.5 mL buffer for 60 min at 0-4° C. […] Nonspecific binding was determined using 1 mM desipramine. Incubations were terminated by rapid filtration through Whatman GF/B filters, presoaked in 0.05% polyethylenimine, using a Brandel R48 filtering manifold (Brandel Instruments Gaithersburg, Md.). The filters were washed twice with 3 mL cold buffer and transferred to scintillation vials. Beckman Ready Value (3.0 mL) was added and the vials were counted using a Beckman 6000 liquid scintillation counter (Beckman Coulter Instruments, Fullerton, Calif.). […] All compounds were tested as racemic mixtures.
# DAT = DAT (Rattus norvegicus (Rat), UniProt P23977); assay: Dopamine Transporter Binding Assay ([3H]WIN 35428, rat striatal membranes)
# DAT, sequence (P23977 whole entry): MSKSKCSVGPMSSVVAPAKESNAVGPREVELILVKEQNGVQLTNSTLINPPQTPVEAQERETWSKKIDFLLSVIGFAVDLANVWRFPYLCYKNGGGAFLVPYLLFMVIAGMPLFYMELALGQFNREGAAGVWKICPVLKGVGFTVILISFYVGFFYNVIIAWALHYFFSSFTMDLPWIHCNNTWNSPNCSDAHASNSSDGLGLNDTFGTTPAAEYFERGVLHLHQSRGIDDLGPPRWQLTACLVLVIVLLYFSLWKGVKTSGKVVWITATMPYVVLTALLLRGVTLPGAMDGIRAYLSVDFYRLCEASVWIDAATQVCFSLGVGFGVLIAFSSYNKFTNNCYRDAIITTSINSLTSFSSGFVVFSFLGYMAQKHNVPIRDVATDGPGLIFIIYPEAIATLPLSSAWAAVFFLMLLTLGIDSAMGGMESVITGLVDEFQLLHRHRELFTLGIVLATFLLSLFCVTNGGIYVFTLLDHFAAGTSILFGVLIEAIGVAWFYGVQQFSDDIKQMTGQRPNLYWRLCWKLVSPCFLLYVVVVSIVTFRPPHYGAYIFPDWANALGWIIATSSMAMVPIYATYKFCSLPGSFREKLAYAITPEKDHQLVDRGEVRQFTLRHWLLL
# SERT = SERT (Rattus norvegicus (Rat), UniProt P31652); conditions: 2i v. 2g (Table 1); 4c v. 4a (Table 2)
# SERT, sequence (P31652 whole entry): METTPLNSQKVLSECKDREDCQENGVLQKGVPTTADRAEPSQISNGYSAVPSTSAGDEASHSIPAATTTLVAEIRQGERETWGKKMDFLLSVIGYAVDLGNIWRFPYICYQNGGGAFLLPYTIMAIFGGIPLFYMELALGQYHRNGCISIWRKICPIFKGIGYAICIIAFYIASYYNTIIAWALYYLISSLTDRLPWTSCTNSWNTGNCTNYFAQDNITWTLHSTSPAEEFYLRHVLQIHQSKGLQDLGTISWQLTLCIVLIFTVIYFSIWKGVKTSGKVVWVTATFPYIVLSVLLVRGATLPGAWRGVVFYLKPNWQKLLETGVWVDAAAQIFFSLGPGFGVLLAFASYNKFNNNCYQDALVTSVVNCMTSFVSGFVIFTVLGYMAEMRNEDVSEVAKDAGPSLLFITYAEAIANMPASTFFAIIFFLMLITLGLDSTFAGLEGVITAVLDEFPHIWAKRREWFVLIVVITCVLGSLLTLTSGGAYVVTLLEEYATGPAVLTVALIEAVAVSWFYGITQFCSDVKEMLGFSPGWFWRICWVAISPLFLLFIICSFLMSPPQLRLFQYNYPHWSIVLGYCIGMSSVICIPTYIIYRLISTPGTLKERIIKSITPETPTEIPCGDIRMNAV
# Description: Brains from male Sprague-Dawley rats weighing 200-225 g (Taconic Labs, Germantown, N.Y.) were removed, midbrain dissected and rapidly frozen. […] Nonspecific binding was determined using 10 mM fluoxetine. […] The filters were washed twice with 3 mL cold buffer and transferred to scintillation vials. Beckman Ready Value (3.0 mL) was added and the vials were counted the next day using a Beckman 6000 liquid scintillation counter (Beckman Coulter Instruments, Fullerton, Calif.). […] Data were analyzed with GraphPad Prism software (San Diego, Calif.).
# ON(O)CCc1ccccc1 = assay: cells, lysate or membranes; conditions: other: [3H]DA uptake, COS7 cells; pH 7.4; 37.0 °C
# [3] = substrate: ON(O)CCc1ccccc1; assay: [3H]DA uptake inhibition in intact COS7 cells, hDAT WT; assay type: cell-based, human; conditions: other: [3H]DA uptake, pH 7.4, 37.0 °C
Molecule,Ki (human DAT A480T mutant) [µM],affinity at DAT A480T compared to DAT WT (human DAT A480T mutant),Ki (human SERT T497A mutant) [µM],Ki (human SERT wild type) [µM],Ki (human DAT wild type) [µM],Ki (NET) [µM],further results
"Cc1cc(=O)oc2cc(O)ccc12 [4 Methyl Umbelliferone, 4-methylumbelliferone]",–,–,–,–,–,–,"Phase II, parent compound remaining ([1]; 0 min): 100%; Phase II, parent compound remaining ([1]; 60 min): 3.10%"
"CNC(=O)CSC(c1ccc(Cl)cc1)c1ccc(Cl)cc1 [Compound 2h, 2-((Bis(4-chlorophenyl)methyl)thio)-N-methylacetamide]",2.3,essentially the same,27,8.3,3.7,–,"affinity at SERT T497A compared to SERT WT (human SERT T497A mutant; uptake inhibition, COS7 cells): significantly decreased"
"Fc1ccc(C(SCCNCCCc2ccccc2)c2ccc(F)cc2)cc1 [Compound 4g, N-(2-((bis(4-fluorophenyl)methyl)thio)ethyl)-3-phenylpropan-1-amine]",–,–,–,–,–,3.85,IV brain Conc. ng/g ± SD ([2]; 0.5 h): 4776 (1324) ng/g; IV brain Conc. ng/g ± SD ([2]; 2 h): 14111 (8093) ng/g; PO brain Conc. ng/g ± SD ([2]; 0.5 h): 369 (303) ng/g; PO brain Conc. ng/g ± SD ([2]; 2 h): 223 (90) ng/g
"[O-][S+](CCNCCCc1ccccc1)C(c1ccc(Br)cc1)c1ccc(Br)cc1 (centres unmarked) [Compound 5e, N-(2-((bis(4-bromophenyl)methyl)sulfinyl)ethyl)-3-phenylpropan-1-amine]",–,–,–,–,–,7.58,"selectivity among the monoamine transporters (in words) (DAT; DAT, SERT, NET binding, rat brain membranes): SERT-selective"
"NCCSC(c1ccc(Br)cc1)c1ccc(Br)cc1 [Compound 4c, 2-((bis(4-bromophenyl)methyl)thio)ethan-1-amine]",–,–,–,–,–,–,"increase in SERT affinity, halogen-substituted v. unsubstituted analog (SERT): 9 fold; improvement in DAT affinity, halogen-substituted v. unsubstituted analog (DAT): 3 fold"
"NCCSC(c1ccc(Cl)cc1)c1ccc(Cl)cc1 [Compound 4b, 2-((bis(4-chlorophenyl)methyl)thio)ethan-1-amine]",1.37,remain unchanged,0.17,0.27,1.21,–,affinity at SERT T497A compared to SERT WT (human SERT T497A mutant): remain unchanged
human DAT A480T mutant (Homo sapiens; A480T),–,–,–,–,–,–,"Km (ON(O)CCc1ccccc1): 1,930 nM"
"NCCSC(c1ccccc1)c1ccccc1 [Compound 4a, 2-(benzhydrylthio)ethan-1-amine]",0.72,remain unchanged,0.63,0.69,0.39,0.982 ± 0.0433,"affinity at SERT T497A compared to SERT WT (human SERT T497A mutant; uptake inhibition, COS7 cells): remain unchanged"
"CNC(=O)CSC(c1ccc(Br)cc1)c1ccc(Br)cc1 [Compound 2i, 2-((Bis(4-bromophenyl)methyl)thio)-N-methylacetamide]",–,–,–,–,–,11.2,"increase in SERT affinity, halogen-substituted v. unsubstituted analog (SERT): > 50 fold; improvement in DAT affinity, halogen-substituted v. unsubstituted analog (DAT): 6 fold"
B1,–,–,–,–,–,–,"Km [3]: 1,160 nM"
